These results are taken from paper PMC12040169 (PLOS Biology, 2025).

A short description of this series: in vitro. Particulars: human, hela cells, % viability.

Take `O=C(O)c1ccc(OCCNS(=O)(=O)c2ccc3oc4ccccc4c3c2)cc1` [CBK299797]: the viability at 28.5 h, 10 µM was 90.8%. The same measure, in the same setting: the value for `COc1ccc2[nH]cc(C(=O)NCCn3nc(C)c(C)c3C)c2c1` [CBK281389] was 88.2%. Turning to `Cc1cc2c(s1)c1cnn(Cc3ccncc3)c(=O)c1n2C` [CBK284188], the viability at 28.5 h, 10 µM stood at 86.4%. On the same count and under the same terms, the value for `CCc1nc2ccc(C(=O)Nc3ccc(C(N)=O)cc3)cn2c1N(C)CCC(C)C` [CBK145476] was 90.7%; that for `S=C(NCCc1c[nH]c2ccccc12)NCc1ccco1` [CBK267157] was 92.7%. Same read-out and setting: the value for `O=C(Nc1sc2c(c1C(=O)NCC1CCCO1)CCCC2)c1ccccc1[N+](=O)[O-]` (stereo not shown) [CBK264608] was 102%; that for `Cc1cc(C)nc(N2CCC(CC(=O)NCC(C)N3CCCCCC3)CC2)n1` (stereo not shown) [CBK286029] was 94.9%; that for `Cc1nccn1CCNC(=O)c1cc(C2CCCCC2)no1` [CBK283295] was 89.6%. On the same count and under the same terms, the figure for `CN1C(=O)CC2(C1=O)C(=O)N(Cc1ccc3ccccc3n1)c1ccc(Cl)cc12` (stereo not shown) [CBK075494] is 102%. Take `Cc1ccccc1S(=O)(=O)N(c1ccc(C(C)(C)C)cc1)C1CCNCC1` [CBK165074T]: the viability at 28.5 h, 10 µM worked out at 97.8%. Turning to `O=c1[nH]nc2c3c4c(sc3ncn12)CCCC4` [CBK284235], the viability at 28.5 h, 10 µM came out at 56.8%. For `COc1ccc(-c2cc(C(=O)Nc3nc4ccccc4[nH]3)cnc2-c2ccc(F)cc2)cn1` [CBK036617], the viability at 28.5 h, 10 µM is 98.6%. Still for that read-out and setting: the figure for `CCOC(=O)CC(=O)Nc1c(Br)cc(Br)cc1C(=O)O` [CBK261412] is 95.2%; for `CC(=O)Nc1nnc(SCC(=O)NCc2ccc3c(c2)OCO3)s1` [CBK287626] it is 94%. In the case of `C[C@@H](c1ccccc1)n1c(=O)[nH]c2ncc(-c3cccc(/C=C/C(=O)O)c3)nc21` [CBK065040], the viability at 28.5 h, 10 µM amounted to 106%. Same read-out and setting: the figure for `CN1CCN(NC(=O)C23CCC(C)(C(=O)O2)C3(C)C)CC1` (stereo not shown) [CBK268285] is 99.1%; for `Cn1nc(C(=O)NCCSc2n[nH]c(=O)[nH]c2=O)c2ccccc2c1=O` [CBK297501] it is 79.1%. As to `CCOC(=O)N1CCC2(CC1)Oc1ccc(-c3ccccc3)cc1O2` [CBK085500], the viability at 28.5 h, 10 µM (bulk resorufin, single well) stood at 101%. Regarding `O=C(CCC(=O)c1ccc2c(c1)Cc1ccccc1-2)Nc1ccc(C(=O)O)cc1` [CBK268673], the viability at 28.5 h, 10 µM stood at 110%.

Take `O=C(Nc1ccnn1Cc1cc(Br)cs1)c1ccc2ncsc2c1` [CBK296713]: the viability at 28.5 h, 10 µM was 105%. Still for that read-out and setting: the figure for `CCOCCn1cnc2sc(C(=O)NCc3ccccn3)c(C)c2c1=O` [CBK071857] is 93.4%. The same measure, in the same setting: the figure for `CCCN1CC(NC(=O)c2cc(COc3cccc(F)c3)[nH]n2)CC1=O` (stereo not shown) [CBK306912] is 82.2%. On the same count and under the same terms, the figure for `O=C(O)c1ccc(Oc2ccc([N+](=O)[O-])cc2)cc1C(=O)O` [CBK260961] is 89%. On to `CC(C)Nc1cc(SCc2ccc(Cl)c(Cl)c2)ncn1` [CBK103665], for which the viability at 28.5 h, 10 µM amounted to 85.1%. On the same count and under the same terms, the value for `COc1ccc(C(CC(=O)O)c2ccc3c(c2)OCCO3)cc1OC` (stereo not shown) [CBK287121] was 87%; that for `Cc1nc(S(=O)(=O)N2CCC(C(=O)N3CCCCC3)CC2)cn1C` [CBK305963] was 89.4%; that for `O=C1Nc2ccc(C(=O)NCC(O)CO)cc2/C1=C/c1c[nH]c2ncccc12` (stereo not shown) [CBK115363C] was 95.3%. Still for that read-out and setting: the figure for `COc1c(C(N)=O)c(O)c(OC)c2occc12` [CBK016255] is 80.5%; for `CSc1nnc(CCCNC(=O)c2cccc(C#N)c2)n1C1CCCC1` [CBK305459] it is 80.9%. Still for that read-out and setting: the figure for `CSCCC(C(=O)O)N1C(=O)c2ccc(C(=O)O)cc2C1=O` (stereo not shown) [CBK265135] is 110%. Turning to `CC(C)(C)c1ccc(C(=O)CC(C(=O)O)N2CCN(c3cccc(Cl)c3)CC2)cc1` (stereo not shown) [CBK077385], the viability at 28.5 h, 10 µM was found to be 90.9%. On to `CN(CC(=O)NCc1ccc(Cl)cc1)S(=O)(=O)Cc1ccc(C#N)cc1` [CBK305899], for which the viability at 28.5 h, 10 µM was 92.3%. Still for that read-out and setting: the figure for `Cc1csc(-c2cnc(N3CCOCC3)c3nccn23)c1` [CBK091287] is 87.5%; for `CNC(C)Cc1ccccc1Sc1ccccc1` (stereo not shown) [CBK027167G] it is 98%. Still for that read-out and setting: the value for `O=C(C1CCCC1)N1CCCC1c1nc2ccccc2[nH]1` (stereo not shown) [CBK282378] was 88.5%; that for `CC(C)C(NC(=O)C1C=CCN1S(C)(=O)=O)c1cccs1` (stereo not shown) [CBK282701] was 82.5%; that for `CCCCc1ccc(-c2cc3ncccc3nc2N)cc1` [CBK081198] was 96.3%. Same read-out and setting: the value for `CCc1[nH]ncc1C(=O)N1CCN(c2nccc(OC)n2)CC1` [CBK304915] was 86.4%; that for `Cc1cc(C)nc(N/C(=N\C(=S)Nc2cccc(Cl)c2C)NCc2cccnc2)n1` [CBK267254] was 93.5%; that for `CC1CCc2n[nH]c(C(=O)N(C)CCc3ccncc3)c2C1` (stereo not shown) [CBK283195] was 99.5%. On to `O=C1CC(c2ccccc2)n2nc(C(F)(F)F)nc2N1` (stereo not shown) [CBK288063], for which the viability at 28.5 h, 10 µM was determined as 114%.

On to `COc1cc(CNC2CCCCC2)cc(I)c1OCC(N)=O` [CBK269158C], for which the viability at 28.5 h, 10 µM came out at 117%. Same read-out and setting: the value for `O=[N+]([O-])c1ccccc1CN1CCN(C/C=C/c2ccccc2)CC1` [CBK261518] was 87.1%; that for `Cc1ccc(C2CCCN2C(=O)Cn2cc(C(=O)NCc3ccccc3)ccc2=O)cc1C` (stereo not shown) [CBK286051] was 88.1%; that for `COCCCNC(=S)Nc1ccc(N2CCOCC2)c2nonc12` [CBK266947] was 88.8%.

Regarding `Cc1c(C(=O)Nc2cccnc2)nnn1-c1cccc(C(F)(F)F)c1` [CBK107389], the viability at 28.5 h, 10 µM was 97.1%. With `O=C(Nc1ccccc1)NC(N1CCOCC1)C(Cl)(Cl)Cl` (stereo not shown) [CBK261293], the viability at 28.5 h, 10 µM worked out at 103%. On the same count and under the same terms, the figure for `CC(=O)N[C@@H](Cc1c[nH]cn1)C(=O)N1CC[C@H]2NC(=O)[C@H](Cc3ccccc3)NC(=O)C3(C/C=C/C[C@H]2C1)CCOCC3` [CBK292206] is 116%. The same measure, in the same setting: the value for `CC(NC(=O)C1C2C=CC(C2)C1C(=O)O)c1ccccc1` (stereo not shown) [CBK265384] was 109%; that for `CCNS(=O)(=O)c1ccc(NC(=S)Nc2ccc(S(N)(=O)=O)cc2)cc1` [CBK266978] was 99.5%.

With `CS(=O)(=O)N1CCCC(C(=O)Nc2nccs2)C1` (stereo not shown) [CBK287834], the viability at 28.5 h, 10 µM amounted to 100%. For the compound `CC(C)n1c(=O)[nH]c2ccncc2c1=O` [CBK015763], the viability at 28.5 h, 10 µM is 88.8%.

Turning to `N#Cc1ccc(SCCOC(=O)c2cccs2)c([N+](=O)[O-])c1` [CBK066853], the viability at 28.5 h, 10 µM is 99%. In the case of `c1ccc(-c2c(-c3ccccc3)n(Cc3ccco3)c3ncn4nc(-c5ccncc5)nc4c23)cc1` [CBK265298], the viability at 28.5 h, 10 µM was found to be 89.6%. On the same count and under the same terms, the value for `Cc1ccc2nc(NC(=O)c3cc(C)n(C)n3)sc2c1` [CBK287668] was 83.9%; that for `CNS(=O)(=O)c1cccc(C(=O)N(C)Cc2ccsc2)c1` [CBK303993] was 113%; that for `CC1CCCC(C)N1C(=O)Cn1cnc2c(Cl)cc(Cl)cc2c1=O` (stereo not shown) [CBK306222] was 85.7%. On the same count and under the same terms, the figure for `CC(C)(C)C1CCC(OC(=O)CCC(=O)Nc2nccs2)CC1` (stereo not shown) [CBK260890] is 96.9%.

Consider `O=C(O)COc1ccc2c(=O)c(Oc3ccc(Cl)cc3)c(C(F)(F)F)oc2c1` [CBK296087], for which the viability at 28.5 h, 10 µM was 119%. `Fc1ccc([C@@H]2CN(Cc3cccnc3)C[C@H]2c2cc[nH]n2)cc1` [CBK283054]: the viability at 28.5 h, 10 µM stood at 100%. Still for that read-out and setting: the figure for `CCCC/N=C(\NS(=O)(=O)c1ccc(C)cc1)OCC` [CBK022731] is 106%; for `COCOc1ccc(-c2ncc(OC)nc2NC(=O)c2cc(C)oc2C)cc1` [CBK145249] it is 97.6%; for `CCCC/C=C/c1cn2ccnc2c(N2CCN(c3ccccn3)CC2)n1` [CBK066224] it is 94%. The same measure, in the same setting: the value for `CCOC(=O)C(NC(=O)C1CCC(=O)N1)c1cccc(C)c1C` (stereo not shown) [CBK305472] was 93.8%.

Turning to `O=S(=O)(Nc1cccc(-c2nnn[nH]2)c1)c1cc(Br)c(Cl)s1` [CBK160374], the viability at 28.5 h, 10 µM amounted to 102%. Regarding `O=C(NCCc1ccc(O)cc1)c1ccc(-c2ccc(OC(F)(F)F)cc2)nc1` [CBK156224], the viability at 28.5 h, 10 µM amounted to 95.8%.

As for `O=C(c1cnc2ccccc2n1)N1CCc2ccccc21` [CBK200267], the viability at 28.5 h, 10 µM stood at 117%.

Consider `O=C(CN1C(=O)CCC1=O)Nc1nnc(-c2ccc3c(c2)CCCC3)o1` [CBK287427], for which the viability at 28.5 h, 10 µM is 80.2%. On the same count and under the same terms, the figure for `Cc1ccc2nc(O)cc(C(=O)OCC(=O)c3cccc([N+](=O)[O-])c3)c2c1` [CBK265115] is 94.1%; for `O=C(Nc1nn(Cc2ccc(Oc3ccccc3)cc2)c2ccccc12)c1ccno1` [CBK048224] it is 97.8%; for `COC(=O)c1cn(-c2ccc(Cl)cc2)c(=O)c2ccccc12` [CBK116489] it is 101%. Take `CCOC(=O)c1cnn(C2CCCN(Cc3cnnn3C)C2)c1` (stereo not shown) [CBK305122]: the viability at 28.5 h, 10 µM was found to be 98.5%. Consider `Cc1cccc(C(C)(C)C)c1OCCNCCN` [CBK265058G], for which the viability at 28.5 h, 10 µM was 118%. Still for that read-out and setting: the value for `O=C(O)/C=C/c1cn([C@H]2C[C@@H](O)[C@@H](CO)O2)c(=O)[nH]c1=O` [CBK201174] was 92.9%. On to `Cn1c(CSCc2ccccc2)nnc1SCC(=O)c1ccc(Br)cc1` [CBK266565], for which the viability at 28.5 h, 10 µM is 94.9%. Same read-out and setting: the figure for `N#Cc1ccc(CN2CCN(S(=O)(=O)c3ccc(-n4cnc(Cl)c4Cl)cc3)CC2)cc1` [CBK062972] is 104%; for `OCCN(CCO)Cc1c(Cl)cccc1Cl` [CBK261887] it is 93%.

Take `O=C1N=C(NC2CCCCCC2)SC1CC(=O)N(Cc1ccccc1)c1ccccc1` (stereo not shown) [CBK067394]: the viability at 28.5 h, 10 µM turned out to be 85.2%. The same measure, in the same setting: the value for `CN(C)CCNC(=O)c1ccc(-c2ccccc2S(=O)(=O)Nc2ccc(C(=O)O)c(O)c2)cc1` [CBK174050] was 106%.

The term viability denotes a read-out of living cells in per cent, often relative to untreated cells.
